The values that follow are results of earlier work, collected in EP1997479A1, “Stabilized amorphous candesartan cilexetil compositions for oral administration” (Helm AG, priority 2007, dated 2008).

The structures appear in SMILES notation.

Turning to `CCOc1nc2cccc(C(=O)OC(C)OC(=O)OC3CCCCC3)c2n1Cc1ccc(-c2ccccc2-c2nnn[nH]2)cc1` (racemic) [Candesartan cilexetil, (±)-1-(Cyclohexyloxycarbonyloxy)ethyl 2-ethoxy-1-[[2'-(1H-tetrazol-5-yl)biphenyl-4-yl]methyl]-1 H-benzimidazole-7-carboxylate], the solubility in water entry is on record as “low solubility in water”.
